Earlier results in the CATMoS acute toxicity set (Mansouri et al. 2021).
Values joined by “and” are separate entries in the source; they are usually repeats but may differ in a detail not shown here. Identical values can stand only once.

Assay: rat acute oral toxicity
Conditions: in vivo

Compared with `CC(C)(C)c1cc(C(=O)c2cccs2)cc(C(C)(C)C)c1O`, `CNC(=O)Oc1ccc(SC)c(C)c1` is 32-fold lower in LD50: 1620 mg/kg for the first, 50 mg/kg for the second.

Compared with `COc1ccc(CC2CNC(=O)N2)cc1OC1CCCC1` (centres undefined), `COc1cccc(C(=O)NC2CC3CCC(C2)N3Cc2ccccc2)c1OC` (centres undefined) is 4.1-fold lower in LD50: 600 mg/kg for the first, 147 mg/kg for the second.

`CCN(CC(=O)OCC(F)(F)F)c1cccc(C)c1` and `CCCCC(CC)COC(=O)c1ccccc1C(=O)O` (centres undefined) are within 1.5-fold of each other in LD50: 1900 mg/kg for the first, 1340 mg/kg for the second.

Going from `COc1ccc(C(C)=O)cc1` to `CC(=O)c1ccc(N)cc1`, the LD50 falls from 1720 mg/kg to 381 mg/kg (4.5-fold).

Going from `CC(=O)OCC1=C(C(=O)O)N2C(=O)[C@@H](NC(=O)CSc3ccncc3)[C@H]2SC1` to `CON=C(C(=O)N[C@@H]1C(=O)N2C(C(=O)O)=C(COC(N)=O)CS[C@H]12)c1ccco1`, the LD50 falls from 16400 mg/kg to 10000 mg/kg (1.6-fold).

First: COP(=S)(OC)SC(CBr)N1C(=O)c2ccccc2C1=O (centres undefined)
Second: COP(=S)(OC(C)C)SCN1C(=O)c2ccccc2C1=O (centres undefined)
The LD50 of the first is 3.8-fold higher: 188 mg/kg for the first, 50 mg/kg for the second.

First: C#CCOc1ccc(N)cc1C(=O)NCCCC
Second: CCCCc1ccc(C(=O)O)nc1
The LD50 of the first is 1.8-fold higher: 864 mg/kg for the first, 480 mg/kg for the second.

Going from `Nc1ncc2[nH]cnc2n1` to `Cc1cnccn1`, the LD50 rises from 723 mg/kg to 1800 mg/kg (2.5-fold).

Compared with `C=C(C)C(=O)OC(=O)COC(C)C`, `CC(O)COC(C)(C)C` (centres undefined) is 2.4-fold lower in LD50: 9000 mg/kg for the first, 3770 mg/kg for the second.

First: C=CCC1(CCSCCCC)C(=O)N=C(S)NC1=O (centres undefined)
Second: CCCCCCOC(C)=O
The LD50 of the first is 29-fold lower: 1450 mg/kg for the first, 42000 mg/kg for the second.

Compared with `CCNc1nc(=O)nc(NC(C)(C)C(=O)O)[nH]1`, `CCCC(C)(C)C(=O)Nc1ccc(Cl)cc1` is 3.3-fold higher in LD50: 789 mg/kg for the first, 2600 mg/kg for the second.

First: CNCCCC1(C#N)c2ccccc2CCc2ccccc21
Second: CN(C)CCC(O)(c1ccccc1)c1ccccc1Cl (centres undefined)
The LD50 of the first is 2.5-fold higher: 889 mg/kg for the first, 350 mg/kg for the second.

Compared with `O=NN1CCOC1`, `CC(O)C(c1ccc2c(c1)OCO2)N1CCOCC1` (centres undefined) is 1.6-fold higher in LD50: 1500 mg/kg for the first, 2470 mg/kg for the second.

Going from `Cc1nccnc1N1CCCCC1` to `CC1=CC(=C2C(=O)c3ccccc3C2=O)C=CN1CCN1CCCCC1`, the LD50 falls from 730 mg/kg to 390 mg/kg (1.9-fold).

Going from `CC(=O)O[C@H]1C[C@H](O[C@H]2[C@@H](OC=O)C[C@H](O[C@H]3[C@@H](OC=O)C[C@H](O[C@H]4CC[C@@]5(C)[C@H](CC[C@@H]6[C@@H]5CC[C@]5(C)[C@@H](C7=CC(=O)OC7)[C@@H](OC=O)C[C@]65O)C4)O[C@@H]3C)O[C@@H]2C)O[C@H](C)[C@H]1OC=O` to `CCCCC(=O)OCC(=O)[C@H]1[C@H](C)C[C@H]2[C@@H]3C[C@H](F)C4=CC(=O)C=C[C@]4(C)[C@@]3(F)[C@@H](O)C[C@@]21C`, the LD50 rises from 39 mg/kg to 3100 mg/kg (79-fold).

`CC(=O)c1ccc(OCC(=O)NN)cc1` and `COc1ccc(C=O)cc1` are within 1.5-fold of each other in LD50: 1820 mg/kg for the first, 1510 mg/kg for the second.

Compared with `COc1ccc(C2Sc3ccccc3N(CCN(C)C)C(=O)C2OC(C)=O)cc1` (centres undefined), `CC(=O)c1cccc2ccccc12` is 2.8-fold higher in LD50: 560 mg/kg for the first, 1560 mg/kg for the second.

`OCC1CCCCO1` (centres undefined) and `O=C(NC1CCSC1=O)c1cccnc1` (centres undefined) are within 1.5-fold of each other in LD50: 3730 mg/kg for the first, 4500 mg/kg for the second.

First: CCCn1c(=O)c2[nH]c(C)nc2n(CC(C)C)c1=O
Second: CCOP(=O)(OCC)Oc1ccc(S(C)(=O)=O)c(C)c1
The LD50 of the first is 2.3-fold higher: 19 mg/kg for the first, 8.13 mg/kg for the second.

First: C/C=C1\[C@H]2C=C(C)C[C@]1(N)c1ccc(=O)[nH]c1C2
Second: CCCC=C1OC(=O)c2ccccc21
The LD50 of the first is 120-fold lower: 15 mg/kg for the first, 1850 mg/kg for the second.

Going from `CN1CCN(C2=Cc3ccccc3Sc3ccc(Cl)cc32)CC1` to `O=C1CCc2cc(CCCCN3CCN(c4ccccc4Cl)CC3)ccc2N1`, the LD50 rises from 115 mg/kg to 500 mg/kg (4.3-fold).

`Cc1ncoc1C#N` and `C=Cc1ccc(OCC2CO2)cc1` (centres undefined) are within 1.5-fold of each other in LD50: 735 mg/kg for the first, 1000 mg/kg for the second.

First: CC(=O)OC12CCC(C)=CCC13CCC2C(C)(C=CC=C(C)C(=O)O)OC3=O (centres undefined)
Second: CC(C(=O)O)c1ccc2c(c1)OCc1cc(Cl)ccc1C2=O (centres undefined)
The LD50 of the first is 18-fold higher: 219 mg/kg for the first, 12 mg/kg for the second.

`O=C(Nc1ccccc1)Nc1cnns1` and `CC(=O)c1cccc(Oc2ccccc2)c1` are within 1.5-fold of each other in LD50: 5350 mg/kg for the first, 4160 mg/kg for the second.

First: CCCCCCCCCCOC(=O)C[N+](C)(C)CCSCC[N+](C)(C)CC(=O)OCCCCCCCCCC
Second: CCCCCCCCCc1ccc(OCCOS(=O)(=O)O)cc1
The LD50 of the first is 3.8-fold lower: 2660 mg/kg for the first, 10000 mg/kg for the second.

First: ClC1=C(Cl)C2(Cl)C3CCC4C(CCC3C1(Cl)C2(Cl)Cl)C1(Cl)C(Cl)=C(Cl)C4(Cl)C1(Cl)Cl (centres undefined)
Second: CCCCCCOC(C[n+]1ccccc1)c1ccc(C2CCCCC2)cc1 (centres undefined)
The LD50 of the first is 100-fold higher: 25000 mg/kg for the first, 250 mg/kg for the second.

Compared with `CCOP(=S)(OCC)OC(C)=CC(=O)OC`, `CCOP(=S)(OCC)SCCSCC(=O)NC` is 130-fold higher in LD50: 0.14 mg/kg for the first, 18 mg/kg for the second.

Going from `O=C1CCC(=O)N1` to `O=C1CCCN1c1cccc2cccnc12`, the LD50 falls from 14000 mg/kg to 1650 mg/kg (8.5-fold).

Going from `CNc1snc2ccccc12` to `CC(C)CCCCCc1ccc(O)cc1`, the LD50 rises from 400 mg/kg to 2150 mg/kg (5.4-fold).

Compared with `CCCCC(CC)COC(N)=O` (centres undefined), `NCCCCCCC(=O)O` is 2.9-fold higher in LD50: 3150 mg/kg for the first, 9000 mg/kg for the second.

Compared with `COP(=O)(SC)SC`, `CCOC(C1=NCC(C)(C)CN1)c1ccc(OC)cc1` (centres undefined) is 24-fold higher in LD50: 26 mg/kg for the first, 625 mg/kg for the second.

First: COCCN1C(=O)C2C3C=C(C(O)(c4ccccc4)c4ccccn4)C(C3=C(c3ccccc3)c3ccccn3)C2C1=O (centres undefined)
Second: CCOC(=O)C(NCCNC(C(=O)OCC)c1ccccc1O)c1ccccc1O (centres undefined)
The LD50 of the first is 89-fold lower: 9 mg/kg for the first, 800 mg/kg for the second.

First: OCC(CBr)(CBr)CBr
Second: CC(O)CF (centres undefined)
The LD50 of the first is 2-fold lower: 1630 mg/kg for the first, 3260 mg/kg for the second.

Compared with `Oc1ccc(C(c2ccc(O)cc2)(C(F)(F)F)C(F)(F)F)cc1`, `COc1ccc(OC)c(C(O)CNC(=O)CN)c1` (centres undefined) is 49-fold lower in LD50: 3400 mg/kg for the first, 68.8 mg/kg for the second.

In the case of `O=C(O)c1cc(Cl)cc([N+](=O)[O-])c1Cl`, the LD50 is given as 2640 mg/kg and 3500 mg/kg.
